Measurements reported in the supplement of paper PMC11061612.

Legend:
[1] = system: CAMA-1 (Breast Carcinoma); experiment: combination Emax (second highest fraction inhibited in the dose matrix, 72 h); higher = more inhibition; extreme values may be limits of the assay
Procedure, shortened: (§1)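 Bliss excess equals the observed combination effect minus the expected value EA + EB − EA·EB, where EA and EB are the effects of each agent alone. Combination Emax is the second-highest inhibition within the matrix. Inhibition was scaled from CellTiter-Glo 2.0 luminescence, with 0 set by vehicle wells and 1 by blank wells, after 72 hours of two-drug dosing of cells plated in 1536-well plates.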

[2] = system: DND-41 (T-Lymphoblastic Leukemia); experiment: as above
Procedure, shortened: as §1

[3] = system: K-562 (Chronic Myelogenous Leukemia); experiment: as above
Procedure, shortened: as §1

[4] = system: L-540 (Hodgkin's Lymphoma); experiment: as above
Procedure, shortened: as §1

[5] = system: WIL2-NS (Non-Cancerous); experiment: as above
Procedure, shortened: as §1

[6] = system: SR (Other Blood Carcinomas); experiment: as above
Procedure, shortened: as §1

[7] = system: SW837 (Colorectal Carcinoma); experiment: as above
Procedure, shortened: as §1

[8] = system: ES8 (Ewing's Sarcoma); experiment: as above
Procedure, shortened: as §1

[9] = system: SW1417 (Colorectal Carcinoma); experiment: as above
Procedure, shortened: as §1

[10] = system: ES1 (Ewing's Sarcoma); experiment: as above
Procedure, shortened: as §1

[11] = system: WM-115 (Melanoma); experiment: as above
Procedure, shortened: as §1

[12] = system: NCI-H2818 (Mesothelioma); experiment: as above
Procedure, shortened: as §1

[13] = system: BL-41 (Burkitt's Lymphoma); experiment: as above
Procedure, shortened: as §1

[14] = system: MKN28 (Gastric Carcinoma); experiment: as above
Procedure, shortened: as §1

[15] = system: GR-ST (B-Lymphoblastic Leukemia); experiment: as above
Procedure, shortened: as §1

[16] = system: NCI-H1792 (Lung Adenocarcinoma); experiment: as above
Procedure, shortened: as §1

[17] = system: BFTC-905 (Bladder Carcinoma); experiment: as above
Procedure, shortened: as §1

[18] = system: CAMA-1 (Breast Carcinoma); experiment: Bliss excess, mean over the matrix (fraction); higher = more synergy
Procedure, shortened: as §1

[19] = system: DND-41 (T-Lymphoblastic Leukemia); experiment: as above
Procedure, shortened: as §1

[20] = system: K-562 (Chronic Myelogenous Leukemia); experiment: as above
Procedure, shortened: as §1

[21] = system: L-540 (Hodgkin's Lymphoma); experiment: as above
Procedure, shortened: as §1

[22] = system: WIL2-NS (Non-Cancerous); experiment: as above
Procedure, shortened: as §1

[23] = system: SR (Other Blood Carcinomas); experiment: as above
Procedure, shortened: as §1

[24] = system: SW837 (Colorectal Carcinoma); experiment: as above
Procedure, shortened: as §1

[25] = system: ES8 (Ewing's Sarcoma); experiment: as above
Procedure, shortened: as §1

[26] = system: SW1417 (Colorectal Carcinoma); experiment: as above
Procedure, shortened: as §1

[27] = system: ES1 (Ewing's Sarcoma); experiment: as above
Procedure, shortened: as §1

[28] = system: WM-115 (Melanoma); experiment: as above
Procedure, shortened: as §1

[29] = system: NCI-H2818 (Mesothelioma); experiment: as above
Procedure, shortened: as §1

[30] = system: BL-41 (Burkitt's Lymphoma); experiment: as above
Procedure, shortened: as §1

[31] = system: MKN28 (Gastric Carcinoma); experiment: as above
Procedure, shortened: as §1

[32] = system: GR-ST (B-Lymphoblastic Leukemia); experiment: as above
Procedure, shortened: as §1

[33] = system: NCI-H1792 (Lung Adenocarcinoma); experiment: as above
Procedure, shortened: as §1

[34] = system: BFTC-905 (Bladder Carcinoma); experiment: as above
Procedure, shortened: as §1

| SMILES | combination Emax [1] | combination Emax [2] | combination Emax [3] | combination Emax [4] | combination Emax [5] | combination Emax [6] | combination Emax [7] | combination Emax [8] | combination Emax [9] | combination Emax [10] | combination Emax [11] | combination Emax [12] | combination Emax [13] | combination Emax [14] | combination Emax [15] | combination Emax [16] | combination Emax [17] | Bliss excess [18] | Bliss excess [19] | Bliss excess [20] | Bliss excess [21] | Bliss excess [22] | Bliss excess [23] | Bliss excess [24] | Bliss excess [25] | Bliss excess [26] | Bliss excess [27] | Bliss excess [28] | Bliss excess [29] | Bliss excess [30] | Bliss excess [31] | Bliss excess [32] | Bliss excess [33] | Bliss excess [34] |
| --- | --- | --- | --- | --- | --- | --- | --- | --- | --- | --- | --- | --- | --- | --- | --- | --- | --- | --- | --- | --- | --- | --- | --- | --- | --- | --- | --- | --- | --- | --- | --- | --- | --- | --- |
| C[C@@H](Nc1cc(F)cc(F)c1)c1cc(C(=O)N(C)C)cc2c(=O)cc(N3CCOCC3)oc12 [AZD8186] + C1CN(CCC1(C(=O)N[C@@H](CCO)C2=CC=C(C=C2)Cl)N)C3=NC=NC4=C3C=CN4 [AZD5363] (first compound max 10 µM, 7x7, partner max 10 µM) | 0.712 | 0.193 | 0.253 | 0.173 | 0.614 | 0.297 | 0.237 | 0.625 | 0.372 | 0.55 | 0.645 | 0.286 | 0.276 | 0.107 | 0.556 | 0.344 | 0.423 | 0.0234 | 0.0141 | 0.0402 | -0.024 | 0.0339 | -0.0412 | -0.0386 | 0.0216 | -0.0038 | 0.0388 | -0.0842 | -0.017 | -0.0264 | -0.0504 | -0.03 | -0.0066 | -0.0098 |
| O=C(c1cc(Cc2n[nH]c(=O)c3ccccc23)ccc1F)N1CCN(C(=O)C2CC2)CC1 [Olaparib] + CN(CC[C@H](CSC1=CC=CC=C1)NC2=C(C=C(C=C2)S(=O)(=O)NC(=O)C3=CC=C(C=C3)N4CCC(CC4)[C@H](C5=CC=CC=C5C6=CC=C(C=C6)Cl)O)S(=O)(=O)C(F)(F)F)CCO [AZD4320] (first compound max 10 µM, 7x7, partner max 1 µM) | 0.278 | 1 | 0.253 | 0.618 | 0.509 | 0.709 | 0.197 | 0.982 | 0.651 | 0.918 | 0.37 | 0.186 | 0.417 | 0.147 | 0.462 | 0.154 | 0.346 | -0.0317 | -0.0067 | -0.0155 | -0.0017 | 0.0107 | 0.146 | -0.053 | 0.0463 | -0.0183 | 0.0333 | -0.0631 | -0.0504 | 0.0193 | -0.0269 | 0.0012 | -0.0399 | -0.0089 |
| C[C@@H](Nc1cc(F)cc(F)c1)c1cc(C(=O)N(C)C)cc2c(=O)cc(N3CCOCC3)oc12 [AZD8186] + CC(=O)c1c(C)c2cnc(Nc3ccc(N4CCNCC4)cn3)nc2n(C2CCCC2)c1=O [Palbociclib] (first compound max 10 µM, 7x7, partner max 10 µM) | 0.738 | 0.504 | 0.196 | 0.267 | 0.771 | 0.839 | 0.213 | 0.676 | 0.395 | 0.722 | 0.58 | 0.389 | 0.245 | 0.227 | 0.725 | 0.577 | 0.55 | 0.0447 | 0.0875 | 0.0479 | 0.0275 | -0.0251 | 0.0382 | -0.0454 | 0.0321 | 0.0187 | 0.074 | 0.0109 | 0.044 | -0.0114 | -0.0287 | 0.0215 | 0.0608 | 0.0553 |
| O=C(c1cc(Cc2n[nH]c(=O)c3ccccc23)ccc1F)N1CCN(C(=O)C2CC2)CC1 [Olaparib] + Cc1c2c(nn1C)CSCc1cc(n(C)n1)CSc1cc(c3ccccc3c1)OCCCc1c(C(=O)O)n(C)c3c-2c(Cl)ccc13 [AZD5991] (first compound max 10 µM, 7x7, partner max 1 µM) | 0.706 | 0.174 | 0.0695 | 1 | 0.299 | 0.943 | 0.136 | 0.958 | 0.0852 | 0.98 | 0.146 | 0.169 | 1 | 0.0875 | 0.515 | 0.201 | 0.178 | 0.0094 | -0.0059 | -0.0125 | 0.0143 | -0.0181 | 0.0384 | -0.0524 | -0.0085 | -0.0315 | 0.0139 | -0.0678 | -0.0446 | 0.0012 | -0.0498 | -0.0352 | -0.041 | -0.0279 |
| C=CCn1c(=O)c2cnc(Nc3ccc(N4CCN(C)CC4)cc3)nc2n1-c1cccc(C(C)(C)O)n1 [AZD1775] + CCc1c2c(nc3ccc(O)cc13)-c1cc3c(c(=O)n1C2)COC(=O)[C@]3(O)CC [SN-38] (first compound max 1 µM, partner max 0.3 µM) | 0.466 | 0.983 | 0.953 | 0.953 | 0.961 | 1 | 0.703 | 1 | 0.793 | 1 | 0.416 | 0.399 | 1 | 0.689 | 0.825 | 0.755 | 0.946 | 0.0473 | -0.0446 | 0.0873 | -0.0458 | -0.0755 | 0.0049 | -0.0222 | -0.0145 | -0.0298 | -0.0144 | -0.0252 | -0.063 | -0.0252 | 0.0317 | -0.0824 | -0.0124 | -0.0133 |
| CN(CCO)CC[C@H](CSc1ccccc1)Nc1ccc(S(=O)(=O)NC(=O)c2ccc(N3CCC([C@@H](O)c4ccccc4-c4ccc(Cl)cc4)CC3)cc2)cc1S(=O)(=O)C(F)(F)F [AZD4320] + CS(=O)(=O)CCNCc1ccc(-c2ccc3ncnc(Nc4ccc(OCc5cccc(F)c5)c(Cl)c4)c3c2)o1 [Lapatinib] (first compound max 1 µM, 7x7, partner max 10 µM) | 0.36 | 1 | 0.552 | 0.905 | 0.258 | 0.777 | 0.942 | 0.956 | 0.934 | 0.923 | 0.909 | 0.407 | 0.97 | 0.693 | 0.961 | 0.546 | 0.529 | 0.0048 | 0.0603 | -0.03 | 0.137 | -0.0018 | 0.0765 | 0.0547 | 0.121 | 0.0238 | -0.0147 | 0.0604 | -0.0332 | -0.0006 | -0.0128 | -0.0086 | -0.0553 | 0.034 |
| CS(=O)(=O)CCNCc1ccc(-c2ccc3ncnc(Nc4ccc(OCc5cccc(F)c5)c(Cl)c4)c3c2)o1 [Lapatinib] + Cn1cnc2c(F)c(Nc3ccc(Br)cc3Cl)c(C(=O)NOCCO)cc21 [Selumetinib] (first compound max 10 µM, 7x7, partner max 10 µM) | 0.187 | 0.871 | 0.564 | 0.511 | 0.321 | 0.707 | 0.732 | 0.555 | 0.698 | 0.452 | 0.531 | 0.28 | 0.907 | 0.545 | 0.969 | 0.527 | 0.804 | -0.0009 | 0.0178 | -0.0324 | -0.0147 | 0.0098 | 0.0398 | 0.0194 | 0.036 | 0.0847 | 0.0071 | 0.0205 | -0.0295 | -0.0346 | 0.0057 | -0.03 | 0.0012 | 0.0619 |
| C=CCn1c(=O)c2cnc(Nc3ccc(N4CCN(C)CC4)cc3)nc2n1-c1cccc(C(C)(C)O)n1 [AZD1775] + Nc1ccn([C@@H]2O[C@H](CO)[C@@H](O)C2(F)F)c(=O)n1 [Gemcitabine] (first compound max 1 µM, partner max 0.3 µM) | 0.534 | 0.943 | 0.869 | 0.968 | 0.973 | 1 | 0.691 | 1 | 0.663 | 1 | 0.459 | 0.44 | 1 | 0.552 | 0.855 | 0.878 | 0.836 | 0.0354 | 0.0256 | 0.0554 | 0.0052 | 0.0149 | 0.0344 | 0.0269 | 0.0248 | 0.0353 | 0.0471 | 0.0368 | -0.0333 | -0.0067 | 0.0781 | -0.0072 | -0.0287 | -0.0015 |
